Holding throughout (experiment): Antifungal activity test (in vitro), MIC
Common to all, as to type: cell-based

Experiment [1] has as its system Cryptococcus neoformans ATCC 24067. The following applies: ATCC24067.
Experiment [2] deals with Pityrosporum ovale ATCC 38593. The following applies: Malassezia furfur, ATCC38593.
The test system of experiment [3] is Trichophyton mentagrophytes ATCC 9533. The following applies: ATCC9533.
In experiment [4] the test system is Candida albicans ATCC 10231. The following applies: ATCC10231.
In experiment [5] the test system is Candida albicans ATCC 44858. The following applies: ATCC44858.
Experiment [6] concerns Trichophyton rubrum ATCC 10218. The following applies: ATCC10218. The method, then:
(§1) Minimum inhibitory concentration (MIC) of each of the compounds obtained in Examples 1 to 12 was measured for respective fungi at MOS Pharm Service, by the methods described in Antimicrobial Agents and Chemotherapy, vol. 3, pp. 40-48 (1973), Antimicrobial Agents and Chemotherapy, vol. 33, pp. 215-222 (1989) and Antimicrobial Agents and Chemotherapy, vol. 38, pp. 2362-2368 (1994). The measuring conditions are shown in the following. In this case, Voriconazol was used as a comparative compound. Trichophyton rubrum ATCC 10218; Cultured at 28° C. for 3 days using fluid Sabouraud medium, and this was used as a cell suspension. Each of the compounds of the invention was adjusted to a concentration of 1% by weight using dimethyl sulfoxide (DMSO) and a medium similar to the respective medium used in the above-mentioned fungal culture, having a final concentration of from 0.001 to 100 μg/ml, was prepared. Each of the inoculation cell suspensions prepared by the above-mentioned methods was inoculated onto this agar plate. […] In this connection, Voriconazol was used as the comparative compound C-1.

Experiment [7] has as its system Aspergillus niger ATCC 8740. The settings on record: ATCC8740. The method, then:
as §1, with “compound. Aspergillus niger” for “compound. Trichophyton rubrum”, “ATCC 8740;” for “ATCC 10218;”, “for 2” for “for 3”, “using potato dextrose broth,” for “using fluid Sabouraud medium,”

Values after ≈ are worked out from the molar mass of the structure shown.

What is called MIC is the smallest concentration in the dilution series that meets the test's criterion for growth inhibition. A lower MIC goes with greater potency.

On to `C[C@@H](N1CCC(c2ccccn2)CC1)[C@](O)(Cn1cncn1)c1ccc(F)cc1F` [I-1, (2R,3R)-2-(2,4-difluorophenyl)-3-(4-pyridin-2-ylpiperidin-1-yl)-1-(1,2,4-triazol-1-yl)butan-2-ol], for which the MIC in experiment [1] was determined as 0.1 µg/mL (≈ 0.242 µM); in experiment [2], 0.3 µg/mL (≈ 0.726 µM); in experiment [3], 0.3 µg/mL (≈ 0.726 µM); in experiment [4], 0.3 µg/mL (≈ 0.726 µM).
Take `C[C@@H](N1CC=C(c2ccccn2)CC1)[C@](O)(Cn1cncn1)c1ccc(F)cc1F` [I-3, (2R,3R)-2-(2,4-difluorophenyl)-3-(3′,6′-dihydro-2,4′-bipyridin-1′(2′H)-yl)-1-(1,2,4-triazol-1-yl)butan-2-ol]: the minimal inhibitory concentration (MIC) in experiment [1] turned out to be 0.3 µg/mL (≈ 0.729 µM); in experiment [2], 0.003 µg/mL (≈ 0.00729 µM); in experiment [3] it was 0.1 µg/mL (≈ 0.243 µM); in experiment [4] it was 0.3 µg/mL (≈ 0.729 µM); in experiment [5], 1 µg/mL (≈ 2.43 µM); in experiment [6], 0.3 µg/mL (≈ 0.729 µM). The same compound yielded an MIC in experiment [7] of 1 µg/mL (≈ 2.43 µM).
Take `C[C@@H](N1CC=C(c2ccc(Cl)cn2)CC1)[C@](O)(Cn1cncn1)c1ccc(F)cc1F` [I-6, (2R,3R)-3-(5-chloro-3′,6′-dihydro-2,4′-bipyridin-1′(2′H)-yl)-2-(2,4-difluorophenyl)-1-(1,2,4-triazol-1-yl)butan-2-ol]: the MIC worked out at 0.03 µg/mL (≈ 0.0673 µM) in experiment [1], 0.003 µg/mL (≈ 0.00673 µM) in experiment [2], 0.1 µg/mL (≈ 0.224 µM) in experiment [3] and 0.01 µg/mL (≈ 0.0224 µM) in experiment [4].

The values above are taken from US7973056B2, “Triazole derivative or salt thereof” (Fujifilm Finechemicals Co., Ltd, priority 2008, dated 2011).
